Results: patent US20220306695A1, “COMPSTATIN ANALOGUES AND THEIR MEDICAL USES” (priority 2019, published 2022)
Like-named read-outs stand apart in the source and are kept apart here. Positions of bridges follow the written chain, without caps; N, C: chain ends. Non-standard residues stand in square brackets, D forms with d. Residues, ends and D or L forms follow the SMILES beside them. Trp(1-Me) = Cn1cc(C[C@H](N)C(=O)O)c2ccccc21; Sar = CNCC(=O)O

What was measured:
[1] = system: classical complement pathway; experiment: In vitro haemolysis assay (inhibition of classical complement pathway); assay type: cell-based, human; settings: Table 3; human serum, sensitized sheep red blood cells; read-out: IC50[nM], in vitro analysis of inhibition of hemolysis
Outline: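 Serially diluted compound (9 points) was preincubated 15 min at room temperature with diluted human serum, titrated per batch to give 70-90% maximal haemolysis, in Tris/casein buffer pH 7.4 with Mg2+/Ca2+. Antibody-sensitized sheep erythrocytes were then added for 30 min at 37° C, and the reaction was stopped with EDTA. Haemolysis was read at A405, with IC50 from 4PL fit.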

in vivo = experiment: in vivo; design: species or system Cynomolgus monkeys (Macaca fascicularis); settings: male, cynomolgus monkey, sc, 1840 nmol/kg, t½
Outline: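 Healthy male cynomolgus monkeys dosed once subcutaneously at 1840 nmol/kg in 20 mM phosphate pH 7.5 with mannitol. Serum sampled pre-dose to 120 h and total drug measured by SPE and LC-MS/MS. Terminal half-life calculated non-compartmentally as ln(2)/λz from the terminal log-linear phase.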

[2] = Solubility test at 10 mg/mL (visual inspection and light scattering); assay type: physicochemical; settings: for Solubility, Condition 1 Acetate pH 4: 10 mg/mL compound in 100 mM acetate pH 4; for Solubility, Condition 2 Acetate pH 5: 10 mg/mL compound in 100 mM acetate pH 5; for Solubility, Condition 3 Phosphate pH 6: 10 mg/mL compound in 100 mM phosphate pH 6; for Solubility, Condition 4 Phosphate pH 7: 10 mg/mL compound in 100 mM phosphate pH 7; for Solubility, Condition 5 Phosphate pH 7.5: 10 mg/mL compound in 100 mM phosphate pH 7.5
[3] = system: alternative complement pathway; experiment: Ex vivo alternative pathway complement activity (WIESLAB kit) in serum of dosed non-human primates; design: species or system Cynomolgus monkeys (Macaca fascicularis); settings: NHP, subcutaneous 1840 nmol/kg, FIG. 1
Method: FIG. 1(a-g): Normalized “ex vivo” activity of the alternative complement pathway over time after administration of a test compound at time 0 to non-human primates. Compounds were given subcutaneously at a dose of 1840 nmol/kg. Complement activity (alternative pathway) was measured using the Wieslab kit. Activity was normalized using the predose (0) sample (set to 100%) and the negative control included in the kit. Normalized activity or average normalized activity for animals and standard deviation is shown.
Healthy male Cynomolgus monkeys (Macaca fascicularis) received single subcutaneous administrations of each test substance. Compounds were formulated in 20 mM phosphate adjusted with NaOH to pH 7.5 and mannitol for isotonicity and dosed at 1840 nmol/kg. Blood was collected from a femoral vein from each animal at the following times: Pre-dose, 1, 2, 4, 8, 24, 48, 72, 96 and 120 h (10 sampling times). Blood was collected into serum separation tubes and allowed to clot at room temperature. The tubes were centrifuged and resulting serum was aliquoted and snap-frozen over dry-ice and stored at nominally −80° C. until analysis. All NHP studies were performed in accordance with animal welfare laws and regulations, including approval of the study by a local ethical review process.
Serum isolated from non-human primates at specific time points after dosing were analyzed for alternative pathway complement activity using the Complement system Alternative Pathway WIESLAB® kit from Svar Life Science (previously Euro diagnostic AB, Sweden) following the manufacturer's protocol. Briefly, serum samples or controls were diluted in buffer and incubated in microtitre strips coated with specific activators of the alternative pathway. The wells were washed and formed C5b-9 was detected using included colorimetric reagents.
Absorbance at 405 nm was measured. The percent activity of the alternative complement pathway was calculated for each animal and timepoint relative to the pre-dose activity (0 hours) of the individual animal with subtraction of the negative control. […]

Human C3 [4] = target: T1, Human C3 (human, UniProt P01024 23-1663); experiment: cell-based or functional assay
T1 sequence (P01024 23-1663 limits assumed): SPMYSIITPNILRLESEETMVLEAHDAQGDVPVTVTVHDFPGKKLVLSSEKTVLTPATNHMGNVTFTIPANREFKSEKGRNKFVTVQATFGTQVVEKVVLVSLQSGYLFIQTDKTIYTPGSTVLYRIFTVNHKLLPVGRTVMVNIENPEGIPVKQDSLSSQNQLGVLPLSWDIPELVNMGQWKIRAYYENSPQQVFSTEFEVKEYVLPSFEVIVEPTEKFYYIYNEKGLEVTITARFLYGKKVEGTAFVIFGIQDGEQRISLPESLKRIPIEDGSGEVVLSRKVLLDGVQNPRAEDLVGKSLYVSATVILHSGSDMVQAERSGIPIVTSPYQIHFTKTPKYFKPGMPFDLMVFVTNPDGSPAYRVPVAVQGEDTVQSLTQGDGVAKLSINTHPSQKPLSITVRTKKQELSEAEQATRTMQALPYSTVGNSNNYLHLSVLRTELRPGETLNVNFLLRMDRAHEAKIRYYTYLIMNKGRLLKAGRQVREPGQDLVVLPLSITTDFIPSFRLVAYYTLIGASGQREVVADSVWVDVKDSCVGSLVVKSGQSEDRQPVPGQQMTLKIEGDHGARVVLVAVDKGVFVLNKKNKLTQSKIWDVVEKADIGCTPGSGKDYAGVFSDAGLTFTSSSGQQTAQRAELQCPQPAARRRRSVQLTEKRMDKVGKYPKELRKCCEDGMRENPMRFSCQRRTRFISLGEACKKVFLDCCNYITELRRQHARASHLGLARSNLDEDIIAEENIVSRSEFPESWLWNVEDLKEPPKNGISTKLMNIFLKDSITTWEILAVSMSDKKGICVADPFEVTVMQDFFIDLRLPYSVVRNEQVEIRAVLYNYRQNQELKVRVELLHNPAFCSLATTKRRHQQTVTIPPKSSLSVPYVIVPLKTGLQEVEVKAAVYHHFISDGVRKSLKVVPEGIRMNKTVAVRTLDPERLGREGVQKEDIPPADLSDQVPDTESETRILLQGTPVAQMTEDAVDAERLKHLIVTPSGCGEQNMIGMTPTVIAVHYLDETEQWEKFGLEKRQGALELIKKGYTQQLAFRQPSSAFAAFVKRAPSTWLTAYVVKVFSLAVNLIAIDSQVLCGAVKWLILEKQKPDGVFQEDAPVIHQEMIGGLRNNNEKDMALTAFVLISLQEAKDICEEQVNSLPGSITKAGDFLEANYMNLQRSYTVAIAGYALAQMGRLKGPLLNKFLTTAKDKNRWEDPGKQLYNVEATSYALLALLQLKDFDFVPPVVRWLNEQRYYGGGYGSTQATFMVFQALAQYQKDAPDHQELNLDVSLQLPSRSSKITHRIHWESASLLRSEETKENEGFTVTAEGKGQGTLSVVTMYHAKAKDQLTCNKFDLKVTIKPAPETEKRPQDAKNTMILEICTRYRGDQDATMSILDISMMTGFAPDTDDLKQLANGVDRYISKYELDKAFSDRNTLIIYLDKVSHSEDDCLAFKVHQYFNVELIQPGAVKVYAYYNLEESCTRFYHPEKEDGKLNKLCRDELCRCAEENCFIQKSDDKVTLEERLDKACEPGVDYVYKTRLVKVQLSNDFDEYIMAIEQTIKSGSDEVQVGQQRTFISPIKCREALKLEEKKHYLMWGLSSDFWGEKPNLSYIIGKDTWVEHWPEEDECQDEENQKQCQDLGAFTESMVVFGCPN

Human C3 [5] = target: T1, Human C3; experiment: cell-based or functional assay; remark: listed apart in the source
Human C3 [6] = target: T1, Human C3; experiment: SPR, C3 immobilised
Method: Surface plasmon resonance (SPR) was used to characterize peptides with respect to their binding affinity (Kd) for C3. Human C3 (Complement tech cat #A1 13c) was immobilised on individual flow cells of CM5 sensor chips (GE Healthcare) using standard amine coupling to a density of approximately 3000 resonance units (RU) in a buffer consisting of 10 mM phosphate pH 7.4, 150 mM NaCl, 0.05% Tween20.
For interaction experiments a multi-cycle experiment approach was used and performed using either a Biacore™ T200 or Biacore™ X100 instrument (GE Healthcare) at 25° C. Peptides were injected in increasing concentration series (5-8 different concentrations) for 60-120 s at a flow rate of 30 μL/min in a buffer consisting of 10 mM Tris buffer at pH 7.4, with 150 mM NaCl and 0.05% Tween20. This was followed by a dissociation period for up to 10 min. The C3 surface was regenerated between runs by a 45 s injection of 3 M MgCl₂.
Sensorgrams were double-referenced (reference surface, blanks) prior to analysis of the kinetic profiles by globally fitting data to a 1:1 Langmuir binding model to obtain association and dissociation rates for calculation of the equilibrium dissociation constant Kd. Each peptide was tested at in at least 2 independent experiments.

Human C3 [7] = target: T1, Human C3; experiment: cell-based or functional assay; remark: listed apart in the source
Human C3 [8] = target: T1, Human C3; experiment: cell-based or functional assay; remark: listed apart in the source

Molecule: CC[C@H](C)[C@@H]1NC(=O)[C@@H](NC(=O)[C@H](Cc2ccc(O)cc2)NC(=O)[C@H](C)NC(=O)[C@H](CO)NC(=O)CNC(=O)[C@H](CCC(=O)O)NC(C)=O)CSSC[C@@H](C(=O)N(C)CC(=O)N[C@@H](CCC(=O)O)C(N)=O)NC(=O)[C@H](CCCNC(=N)N)NC(=O)[C@H](Cc2c[nH]cn2)NC(=O)[C@H](CCC(=O)O)NC(=O)CNC(=O)[C@H](Cc2c[nH]c3ccccc23)NC(=O)[C@H](CC(=O)O)NC(=O)[C@H](CCC(N)=O)NC(=O)[C@H](Cc2cn(C)c3ccccc23)NC1=O [Compound 54] (Ac-EGSAYCI[Trp(1-Me)]QDWGEHRC[Sar]E-NH2; disulfide 6-16)
- IC50 [1]: < 100 nM
- half-life (in vivo): 9.71 h
- Solubility, Condition 1 Acetate pH 4 [2]: − (denotes lack of solubility at the given condition, as UV absorbance at 340 nm exceeds 0.1 AU and/or it is visibly turbid or contains particles.)
- Solubility, Condition 2 Acetate pH 5 [2]: − (denotes lack of solubility at the given condition, as UV absorbance at 340 nm exceeds 0.1 AU and/or it is visibly turbid or contains particles.)
- Solubility, Condition 3 Phosphate pH 6 [2]: + (denotes solubility at the given condition, as determined by UV absorbance being less than 0.1 AU at 340 nm and the sample being clear when manually inspected.)
- Solubility, Condition 4 Phosphate pH 7 [2]: + (denotes solubility at the given condition, as determined by UV absorbance being less than 0.1 AU at 340 nm and the sample being clear when manually inspected.)
- Solubility, Condition 5 Phosphate pH 7.5 [2]: + (denotes solubility at the given condition, as determined by UV absorbance being less than 0.1 AU at 340 nm and the sample being clear when manually inspected.)
- Duration of pharmacological activity (alternative complement pathway activity) in vivo [3]: relatively short duration of action

Molecule: CC[C@H](C)[C@@H]1NC(=O)[C@@H](NC(=O)[C@H](Cc2ccccc2)NC(C)=O)CSSC[C@@H](C(=O)N[C@H](C(=O)NCC(=O)N[C@@H](C)C(=O)N[C@@H](CCC(=O)O)C(=O)N[C@@H](CO)C(N)=O)[C@@H](C)O)NC(=O)[C@H](CCCNC(=N)N)NC(=O)[C@H](Cc2c[nH]cn2)NC(=O)[C@H](CCC(=O)O)NC(=O)CNC(=O)[C@H](Cc2c[nH]c3ccccc23)NC(=O)[C@H](CC(=O)O)NC(=O)[C@H](CCC(N)=O)NC(=O)[C@H](Cc2cn(C)c3ccccc23)NC1=O [Compound 61] (Ac-FCI[Trp(1-Me)]QDWGEHRCTGAES-NH2; disulfide 2-12)
- IC50 [1]: < 100 nM
- half-life (in vivo): 23.3 h
- Solubility, Condition 1 Acetate pH 4 [2]: − (denotes lack of solubility at the given condition, as UV absorbance at 340 nm exceeds 0.1 AU and/or it is visibly turbid or contains particles.)
- Solubility, Condition 2 Acetate pH 5 [2]: − (denotes lack of solubility at the given condition, as UV absorbance at 340 nm exceeds 0.1 AU and/or it is visibly turbid or contains particles.)
- Solubility, Condition 3 Phosphate pH 6 [2]: + (denotes solubility at the given condition, as determined by UV absorbance being less than 0.1 AU at 340 nm and the sample being clear when manually inspected.)
- Solubility, Condition 4 Phosphate pH 7 [2]: + (denotes solubility at the given condition, as determined by UV absorbance being less than 0.1 AU at 340 nm and the sample being clear when manually inspected.)
- Solubility, Condition 5 Phosphate pH 7.5 [2]: + (denotes solubility at the given condition, as determined by UV absorbance being less than 0.1 AU at 340 nm and the sample being clear when manually inspected.)
- Duration of pharmacological activity (alternative complement pathway activity) in vivo [3]: relatively short duration of action

Molecule: CC[C@H](C)[C@H](NC(=O)[C@H](N)Cc1ccc(O)cc1)C(=O)N[C@H]1CSSC[C@@H](C(=O)N(C)[C@H](C(N)=O)[C@@H](C)CC)NC(=O)[C@H](CCCNC(=N)N)NC(=O)[C@H](Cc2c[nH]cn2)NC(=O)[C@H](C)NC(=O)CN(C)C(=O)[C@H](Cc2c[nH]c3ccccc23)NC(=O)[C@H](CC(=O)O)NC(=O)[C@H](CCC(N)=O)NC(=O)[C@H](Cc2cn(C)c3ccccc23)NC(=O)[C@H](C(C)C)NC1=O [Cp40, H-{d}YIC(1)V[1-Me-Trp]QDW[Sar]AHRC(1)[N-Me-Ile]-NH2, reference compound]
- IC50 [1]: < 100 nM
- half-life (in vivo): 31.8 h
- Duration of pharmacological activity (alternative complement pathway activity) in vivo [3]: relatively short duration of action

B1: Compound 1 (peptide)
peptide: Ac-ICIWQDWGAHRCT-NH2
modifications: disulfide 2-12
SMILES: CC[C@H](C)[C@H](NC(C)=O)C(=O)N[C@H]1CSSC[C@@H](C(=O)N[C@H](C(N)=O)[C@@H](C)O)NC(=O)[C@H](CCCNC(=N)N)NC(=O)[C@H](Cc2c[nH]cn2)NC(=O)[C@H](C)NC(=O)CNC(=O)[C@H](Cc2c[nH]c3ccccc23)NC(=O)[C@H](CC(=O)O)NC(=O)[C@H](CCC(N)=O)NC(=O)[C@H](Cc2c[nH]c3ccccc23)NC(=O)[C@H]([C@@H](C)CC)NC1=O
- CP hemolysis IC50 (Human C3 [4]): 150 nM
- IC50[nM], inhibition of hemolysis (Human C3 [5]): < 250 nM

B2: Compound A (peptide)
peptide: Ac-ICVWQDWGEHRCT-NH2
modifications: disulfide 2-12
SMILES: CC[C@H](C)[C@H](NC(C)=O)C(=O)N[C@H]1CSSC[C@@H](C(=O)N[C@H](C(N)=O)[C@@H](C)O)NC(=O)[C@H](CCCNC(=N)N)NC(=O)[C@H](Cc2c[nH]cn2)NC(=O)[C@H](CCC(=O)O)NC(=O)CNC(=O)[C@H](Cc2c[nH]c3ccccc23)NC(=O)[C@H](CC(=O)O)NC(=O)[C@H](CCC(N)=O)NC(=O)[C@H](Cc2c[nH]c3ccccc23)NC(=O)[C@H](C(C)C)NC1=O
- Kd (Human C3 [6]): 130 nM
- IC50, CP hemolysis (Human C3 [7]): 350 nM
- CP hemolysis IC50 (Human C3 [8]): 350 nM
